Converted amounts (≈) assume the structure as drawn. Structures can show the parent of a compound that is named as a salt. Where two headings read alike, the source gives them in different places.
What was measured:
S. pyogenes 3130 = test: In vitro antibacterial activity, MIC (clinical isolates); format: cell-based; conditions: Streptococcus pyogenes; S. pyogenes 3130, 10^6 cells/ml, clinical isolate
S. agalactiae 4394 = test: as above; format: cell-based; conditions: Streptococcus agalactiae; S. agalactiae 4394, 10^6 cells/ml, clinical isolate
[1] = test system: Staphylococcus aureus 209 P; test: In vitro antibacterial activity, MIC (standard strain); format: cell-based; conditions: 10^6 cells/ml, read-out: MIC
[2] = test system: Acinetobacter anitratus IID 876; test: as above; format: cell-based; conditions: Acinetobacter calcoaceticus, IID876; Acinetobacter anitratus IID 876, 10^6 cells/ml, standard strain; read-out: MIC
S. agalactiae 4049 = test: In vitro antibacterial activity, MIC (clinical isolates); format: cell-based; conditions: Streptococcus agalactiae; S. agalactiae 4049, 10^6 cells/ml, clinical isolate
S. pneumoniae 2950 = test: as above; format: cell-based; conditions: Streptococcus pneumoniae; S. pneumoniae 2950, 10^6 cells/ml, clinical isolate
S. faecalis 402 = test: as above; format: cell-based; conditions: Enterococcus faecalis; S. faecalis 402, 10^6 cells/ml, clinical isolate
S. agalactiae 4470 = test: as above; format: cell-based; conditions: Streptococcus agalactiae; S. agalactiae 4470, 10^6 cells/ml, clinical isolate
[3] = test system: Yersinia enterocolitica IID 981; test: In vitro antibacterial activity, MIC (standard strain); format: cell-based; conditions: IID981; Yersinia enterocolitica IID 981, 10^6 cells/ml, standard strain; read-out: MIC
[4] = test system: Clostridium difficile I-E; test: as above; format: cell-based; conditions: Clostridioides difficile, 10^6 cells/ml
S. faecalis 49 = test: In vitro antibacterial activity, MIC (clinical isolates); format: cell-based; conditions: Enterococcus faecalis; S. faecalis 49, 10^6 cells/ml, clinical isolate
E. coli ML4707 = test: MIC against the infecting strain (Table 2); format: cell-based; conditions: Escherichia coli; E. coli ML4707 (Table 2, parts 1 and 2)
Method: The in vitro antibacterial activity has been investigated, the minimun inhibitory concentration (MIC) was determined in accordance with the method recommended by Japan Society of Chemotherapy.

S. faecalis IID 682 = test: In vitro antibacterial activity, MIC (standard strain); format: cell-based; conditions: Enterococcus faecalis, IID682, S. faecalis IID 682, 10^6 cells/ml
[5] = test system: Escherichia coli NIHJ JC-2; test: as above; format: cell-based; conditions: NIHJJC2, Escherichia coli NIHJ JC-2, 10^6 cells/ml
[6] = test system: Bacteroides fragilis GM 7000; test: as above; format: cell-based; conditions: GM7000; Bacteroides fragilis GM 7000, 10^6 cells/ml, standard strain; read-out: MIC
B. fragilis 25285 = test: as above; format: cell-based; conditions: Bacteroides fragilis; B. fragilis 25285, 10^6 cells/ml, standard strain; read-out: MIC
S. pyogenes 4340 = test: In vitro antibacterial activity, MIC (clinical isolates); format: cell-based; conditions: Streptococcus pyogenes; S. pyogenes 4340, 10^6 cells/ml, clinical isolate
E. coli ATCC 10536 = test: In vitro antibacterial activity, MIC (standard strain); format: cell-based; conditions: Escherichia coli, ATCC10536
B. distasonis 8503 = test: as above; format: cell-based; conditions: Parabacteroides distasonis, B. distasonis 8503, 10^6 cells/ml
S. pyogenes 4372 = test: In vitro antibacterial activity, MIC (clinical isolates); format: cell-based; conditions: Streptococcus pyogenes; S. pyogenes 4372, 10^6 cells/ml, clinical isolate
[7] = test system: Peptostreptococcus anaerobius KYA 27337; test: In vitro antibacterial activity, MIC (standard strain); format: cell-based; conditions: KYA27337, Peptostreptococcus anaerobius KYA 27337, 10^6 cells/ml
[8] = test system: Alcaligenes faecalis 0114002; test: as above; format: cell-based; conditions: Alcaligenes faecalis 0114002, 10^6 cells/ml
S. pneumoniae 15 = test: In vitro antibacterial activity, MIC (clinical isolates); format: cell-based; conditions: Streptococcus pneumoniae; S. pneumoniae 15, 10^6 cells/ml, clinical isolate
[9] = test system: Serratia marcescens IID 618; test: In vitro antibacterial activity, MIC (standard strain); format: cell-based; conditions: IID618, Serratia marcescens IID 618, 10^6 cells/ml, read-out: MIC
[10] = test system: Citrobacter freundii IID 976; test: as above; format: cell-based; conditions: IID976
[11] = test system: Pseudomonas aeruginosa V-1; test: as above; format: cell-based; conditions: V1; Pseudomonas aeruginosa V-1, 10^6 cells/ml, standard strain; read-out: MIC
[12] = test system: Fusobacterium necrophorum S-45; test: as above; format: cell-based; conditions: S45, Fusobacterium necrophorum S-45, 10^6 cells/ml
[13] = test system: Propionibacterium acens 11828; test: as above; format: cell-based; conditions: Propionibacterium acens 11828, 10^6 cells/ml
P. aeruginosa IID 1210 = test: In vivo antibacterial activity against systemic infection in mice;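 also: ED50 in mg/kg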; design: species or system mice (ICR-S); conditions: Pseudomonas aeruginosa, IID1210; P. aeruginosa IID 1210, mice (ICR-S), intraperitoneal infection, oral at 1 hour after infection, challenge dose 2.5 x 10^5 cfu/mouse; read-out: ED50
Method: Experiment 2 In vivo antibacterial activity against systemic infection in mice (ICR-S)
The infections were produced by intraperitoneal infection of a suspension of the bacterial culture corresponding to the germ studied. The product was administered orally at 1 hour after the infection. The 50% effective dose (ED50) which protects 50% of the animals from death caused by the infection was determined from the relation between dosage and survival rate.

S. aureus Smith = test: MIC against the infecting strain (Table 2); format: cell-based; conditions: Staphylococcus aureus; S. aureus Smith (Table 2, part 5)
[14] = test system: Peptococcus magnus KY 017; test: In vitro antibacterial activity, MIC (standard strain); format: cell-based; conditions: Finegoldia magna, KY017, Peptococcus magnus KY 017, 10^6 cells/ml
C. ramosum = test: as above; format: cell-based; conditions: Thomasclavelia ramosa; C. ramosum, 10^6 cells/ml, standard strain; read-out: MIC

SMILES	MIC (S. pyogenes 3130)	MIC (S. agalactiae 4394)	MIC [1]	MIC [2]	MIC (S. agalactiae 4049)	MIC (S. pneumoniae 2950)	MIC (S. faecalis 402)	MIC (S. agalactiae 4470)	MIC [3]	MIC [4]	MIC (S. faecalis 49)	MIC (E. coli ML4707)	MIC (S. faecalis IID 682)	MIC [5]	MIC [6]	MIC (B. fragilis 25285)	MIC (S. pyogenes 4340)	MIC (S. pyogenes 4372)	MIC [7]	MIC [8]	also measured
CC1CN(c2c(F)cc3c(=O)c(C(=O)O)cn(C4CC4)c3c2F)CCN1 (stereo not drawn) [Example 2, l-Cyclopropyl-6,8-difluoro-l,4-dihydro-7-(3-methyl-l-piperazinyl)-4-oxoquinoline-3-carboxylic acid]	0.78 µg/mL (≈ 2.15 µM)	1.56 µg/mL (≈ 4.29 µM)	0.2 µg/mL (≈ 0.55 µM)	0.006 µg/mL (≈ 0.0165 µM)	1.56 µg/mL (≈ 4.29 µM)	1.56 µg/mL (≈ 4.29 µM)	1.56 µg/mL (≈ 4.29 µM)	0.78 µg/mL (≈ 2.15 µM)	0.05 µg/mL (≈ 0.138 µM)	6.25 µg/mL (≈ 17.2 µM)	0.78 µg/mL (≈ 2.15 µM)	0.0125 µg/mL (≈ 0.0344 µM)	0.78 µg/mL (≈ 2.15 µM)	≤ 6 ng/mL	1.56 µg/mL (≈ 4.29 µM)	0.78 µg/mL (≈ 2.15 µM)	0.78 µg/mL (≈ 2.15 µM)	0.78 µg/mL (≈ 2.15 µM)	1.56 µg/mL (≈ 4.29 µM)	0.2 µg/mL (≈ 0.55 µM)	MIC (E. coli ATCC 10536; E. coli ATCC 10536, 10^6 cells/ml, standard strain, read-out: MIC): ≤ 0.006 µg/mL; MIC (B. distasonis 8503): 1.56 µg/mL (≈ 4.29 µM); MIC (S. pneumoniae 15): 0.78 µg/mL (≈ 2.15 µM); MIC [9]: 0.05 µg/mL (≈ 0.138 µM); MIC ([10]; Citrobacter freundii): 0.0125 µg/mL (≈ 0.0344 µM); MIC [11]: 0.2 µg/mL (≈ 0.55 µM)
CC1CN(c2c(F)cc3c(=O)c(C(=O)O)cn(C4CC4)c3c2Cl)CCN1 (stereo not drawn) [Example 5, 8-Chloro-l-cyclopropyl-6-fluoro-1,4-dihydro-7-(3-methyl-1-piperazinyl)-4-oxoquinoline-3-carboxylic acid hydrochloride]	0.39 µg/mL	0.78 µg/mL	0.1 µg/mL	0.05 µg/mL	0.78 µg/mL	0.78 µg/mL	0.78 µg/mL	0.78 µg/mL	0.05 µg/mL	3.13 µg/mL	0.78 µg/mL	0.0125 µg/mL	0.39 µg/mL	≤ 6 ng/mL	0.39 µg/mL	0.39 µg/mL	0.39 µg/mL	0.39 µg/mL	0.39 µg/mL	0.39 µg/mL	MIC [12]: 0.39 µg/mL; MIC [13]: 0.39 µg/mL; ED50 (P. aeruginosa IID 1210): 3.2 mg/kg; MIC (S. aureus Smith): 0.1 µg/mL; MIC (E. coli ATCC 10536): 0.0125 µg/mL; MIC (S. pneumoniae 15): 0.78 µg/mL; MIC [14]: 0.1 µg/mL; MIC [9]: 0.05 µg/mL; MIC ([10]; Citrobacter freundii IID 976, 10^6 cells/ml, standard strain, read-out: MIC): 0.025 µg/mL; MIC (C. ramosum): 3.13 µg/mL; MIC [11]: 0.78 µg/mL

From EP0178388A1, “Quinolinecarboxylic acid derivatives” (KYORIN PHARMACEUTICAL CO., LTD., priority 1984, dated 1986)
